Assay results reported in ChEMBL document CHEMBL5728039, “Inhibitors of Bruton's tyrosine kinase and method of their use” (2020).

Biological target: Tyrosine-protein kinase BTK (Homo sapiens, UniProt Q06187)
Test: TBD: TBD

Chain of Tyrosine-protein kinase BTK (Q06187 whole entry): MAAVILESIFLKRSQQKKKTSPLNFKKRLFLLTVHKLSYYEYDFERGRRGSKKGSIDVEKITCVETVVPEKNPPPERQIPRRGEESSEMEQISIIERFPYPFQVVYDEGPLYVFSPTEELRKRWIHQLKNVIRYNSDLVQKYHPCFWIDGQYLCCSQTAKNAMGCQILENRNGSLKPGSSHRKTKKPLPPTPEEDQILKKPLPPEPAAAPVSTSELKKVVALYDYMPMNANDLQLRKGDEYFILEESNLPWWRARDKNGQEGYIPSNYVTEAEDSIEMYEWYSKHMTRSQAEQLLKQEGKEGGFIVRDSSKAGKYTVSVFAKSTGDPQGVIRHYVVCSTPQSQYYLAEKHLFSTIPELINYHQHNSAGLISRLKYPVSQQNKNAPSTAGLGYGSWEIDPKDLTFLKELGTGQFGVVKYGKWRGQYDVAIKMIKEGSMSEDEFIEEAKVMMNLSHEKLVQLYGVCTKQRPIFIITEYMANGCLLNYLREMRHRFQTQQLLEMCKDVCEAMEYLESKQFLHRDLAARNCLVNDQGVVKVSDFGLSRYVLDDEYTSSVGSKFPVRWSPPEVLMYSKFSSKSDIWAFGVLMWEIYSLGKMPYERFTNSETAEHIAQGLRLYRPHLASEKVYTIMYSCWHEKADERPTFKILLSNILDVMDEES

| IC50 | Structure (SMILES) |
| --- | --- |
| > 1000 nM | C=CC(=O)N1CCC[C@@H](NC(=O)c2sc3nccc4c3c2NC(=O)N4c2ccc(Oc3cccnn3)cc2)C1 |
| 398 nM | CN1CC(NC(=O)c2sc3nccc4c3c2NC(=O)N4c2ccc(Oc3ccccc3)cc2)CC1=O (stereo not drawn) |
| 25.1 nM | Cc1cc(Oc2ccccc2)ccc1N1C(=O)Nc2c(C(=O)N[C@@H]3CCCOC3)sc3nccc1c23 |
